# Measured values: PubChem BioAssay (NCI)
#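 Tested at 5 concentrations; 48 h exposure; 96-well plates; endpoints linearly interpolated, else capped at highest concentration. GI50 = concentration required for 50% inhibition of growth. Definition used: TGI = concentration required for complete inhibition of growth.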
# Test system: OVCAR-5 ovarian
# Experiment: inhibition of tumour cell growth, NCI panel, 48 h
SMILES,TGI,GI50
CC(C)(C)OC(=O)n1c(-c2ccccc2F)cc(=O)c2cc3c(cc21)OCO3,> 100 µM,
c1csc(-c2c3ccc(=[N+]4CCCCC4)cc-3oc3cc(N4CCCCC4)ccc23)c1,0.733 µM,0.202 µM
COC(=O)c1cc(/C=C/c2ccc(S(N)(=O)=O)cc2)ccc1O,> 100 µM,59.2 µM
Clc1ccc(N=CNc2ccc(-c3nc4ccccc4o3)cc2)cc1,99.6 µM,33.3 µM
COc1ccc2c(c1)C(C)Cc1c(ncnc1-n1cnc3cc(C)ccc31)N2C (stereo unspecified),26.8 µM,0.294 µM

# Test system: K-562 leukemia
# Experiment: inhibition of tumour cell growth, NCI panel, 48 h
SMILES,TGI,GI50
CC(C)(C)OC(=O)n1c(-c2ccccc2F)cc(=O)c2cc3c(cc21)OCO3,> 100 µM,
COC(=O)c1cc(/C=C/c2ccc(S(N)(=O)=O)cc2)ccc1O,> 100 µM,> 100 µM
Clc1ccc(N=CNc2ccc(-c3nc4ccccc4o3)cc2)cc1,> 100 µM,32.6 µM
COc1ccc2c(c1)C(C)Cc1c(ncnc1-n1cnc3cc(C)ccc31)N2C (stereo unspecified),15.2 µM,0.0386 µM

# Test system: NCI/ADR-RES ovarian
# Experiment: inhibition of tumour cell growth, NCI panel, 48 h
SMILES,TGI,GI50
CC(C)(C)OC(=O)n1c(-c2ccccc2F)cc(=O)c2cc3c(cc21)OCO3,0.0555 µM,
COC(=O)c1cc(/C=C/c2ccc(S(N)(=O)=O)cc2)ccc1O,> 100 µM,59.2 µM
Clc1ccc(N=CNc2ccc(-c3nc4ccccc4o3)cc2)cc1,48.1 µM,7.03 µM
COc1ccc2c(c1)C(C)Cc1c(ncnc1-n1cnc3cc(C)ccc31)N2C (stereo unspecified),59.5 µM,0.0575 µM

# Test system: SNB-19 CNS
# Experiment: inhibition of tumour cell growth, NCI panel, 48 h
SMILES,TGI,GI50
CC(C)(C)OC(=O)n1c(-c2ccccc2F)cc(=O)c2cc3c(cc21)OCO3,> 100 µM,
COC(=O)c1cc(/C=C/c2ccc(S(N)(=O)=O)cc2)ccc1O,> 100 µM,38.2 µM
Clc1ccc(N=CNc2ccc(-c3nc4ccccc4o3)cc2)cc1,> 100 µM,35.8 µM
COc1ccc2c(c1)C(C)Cc1c(ncnc1-n1cnc3cc(C)ccc31)N2C (stereo unspecified),20.4 µM,0.216 µM

# Test system: 786-0 renal
# Experiment: inhibition of tumour cell growth, NCI panel, 48 h
SMILES,TGI,GI50
CC(C)(C)OC(=O)n1c(-c2ccccc2F)cc(=O)c2cc3c(cc21)OCO3,> 44.3 µM,
COC(=O)c1cc(/C=C/c2ccc(S(N)(=O)=O)cc2)ccc1O,> 100 µM,7.35 µM
Clc1ccc(N=CNc2ccc(-c3nc4ccccc4o3)cc2)cc1,> 100 µM,34.6 µM
COc1ccc2c(c1)C(C)Cc1c(ncnc1-n1cnc3cc(C)ccc31)N2C (stereo unspecified),15 µM,0.0649 µM

# Test system: SK-MEL-28 melanoma
# Experiment: inhibition of tumour cell growth, NCI panel, 48 h
SMILES,TGI,GI50
CC(C)(C)OC(=O)n1c(-c2ccccc2F)cc(=O)c2cc3c(cc21)OCO3,> 100 µM,
c1csc(-c2c3ccc(=[N+]4CCCCC4)cc-3oc3cc(N4CCCCC4)ccc23)c1,0.293 µM,0.143 µM
COC(=O)c1cc(/C=C/c2ccc(S(N)(=O)=O)cc2)ccc1O,> 100 µM,95.5 µM
COc1ccc2c(c1)C(C)Cc1c(ncnc1-n1cnc3cc(C)ccc31)N2C (stereo unspecified),19.8 µM,0.575 µM

# Test system: M14 melanoma
# Experiment: inhibition of tumour cell growth, NCI panel, 48 h
SMILES,TGI,GI50
CC(C)(C)OC(=O)n1c(-c2ccccc2F)cc(=O)c2cc3c(cc21)OCO3,> 100 µM,
c1csc(-c2c3ccc(=[N+]4CCCCC4)cc-3oc3cc(N4CCCCC4)ccc23)c1,0.215 µM,0.0776 µM
COC(=O)c1cc(/C=C/c2ccc(S(N)(=O)=O)cc2)ccc1O,> 100 µM,35.3 µM
Clc1ccc(N=CNc2ccc(-c3nc4ccccc4o3)cc2)cc1,> 100 µM,56.4 µM
